Consider 47 compounds from the supplement of paper PMC10290057.

Values joined by “and” are separate entries in the source; they are usually repeats but may differ in a detail not shown here. Identical values can stand only once. Counter-ions that a name gives are not always drawn.

Test [1] has as its system HCT116. As to the kind of experiment: AC50 cell viability (CellTiter-Glo); higher = less potent. To be noted: 48 h. In general terms: ATP-based viability assays read luminescence as a measure of living cells.
The subject of test [2] is HCT116. As to the kind of experiment: efficacy (fitted maximal change in viability relative to DMSO control); higher = less cytotoxic (negative = loss of viability). The note with it: 48 h.
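For AC50 cell viability (CellTiter-Glo) in this document: HCT116 colorectal carcinoma cells screened at five concentrations per compound, luminescent viability scaled between DMSO wells and empty wells on each plate, curves fitted per compound.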
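For efficacy (fitted maximal change in viability relative to DMSO control) in this document: Luminescence-based viability readout, five doses per compound, normalized against on-plate DMSO and empty-well controls, followed by dose-response curve fitting for every drug.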

Consider `COc1cccc2c1C(=O)c1c(O)c3c(c(O)c1C2=O)C[C@@](O)(C(=O)CO)C[C@@H]3O[C@H]1C[C@H](N)[C@H](O[C@H]2CCCCO2)[C@H](C)O1` [Pirarubicin], for which the AC50 cell viability with HCT116 [1] was 0.934 µM and 0.468 µM. Also, the efficacy in the test with HCT116 [2] was -90.5% and -67.3%.
In turn, `O=C([O-])C[C@H](O)C[C@H](O)/C=C/c1c(C2CC2)nc2ccccc2c1-c1ccc(F)cc1` [Pitavastatin calcium] returned an AC50 cell viability with HCT116 [1] of 14.8 µM. For the same compound, in the test on HCT116 [2], the efficacy is -103%.
The matching figures for `CN1CC/C(CC1)=C3\c4ccccc4CCc2sccc23` [Pizotifen]: 23.5 µM and -73.5%.
The matching figures for `CC(C)(C)c1[nH]cnc1/C=c1\[nH]c(=O)/c(=C/c2ccccc2)[nH]c1=O` [Plinabulin]: 0.0525 µM and -58.4%.
The matching figures for `Cc1cc(Nc2ncc3c(n2)N(C)C(=O)N(c2cc(NC(=O)c4cccc(C(F)(F)F)c4)ccc2C)C3)n(C)n1` [Pluripotin]: 0.235 µM and -74%.
With `CC[C@@H]([C@H](C)O)N1\N=C/N(C1=O)C2=CC=C(C=C2)N3CCN(CC3)C4=CC=C(OCC5CO[C@@](C5)(C[N]6C=NC=N6)C7=C(F)C=C(F)C=C7)C=C4` (some centres undefined) [Posaconazole], the AC50 cell viability in the test on HCT116 [1] stood at 6.61 µM. Further, in the test on HCT116 [2], the efficacy was -58.4%.
In turn, `C=CC(=O)N1CCC(Oc2cc3c(Nc4ccc(Cl)c(Cl)c4F)ncnc3cc2OC)CC1` [Poziotinib] returned an AC50 cell viability with HCT116 [1] of 18.6 µM. For the same compound, the efficacy in the test with HCT116 [2] is -106%.
With `CCCCc1nc2cc(/C=C/C(=O)NO)ccc2n1CCN(CC)CC` [Pracinostat], in the test on HCT116 [1], the AC50 cell viability turned out to be 0.372 µM. Moreover, the efficacy in the test with HCT116 [2] was -86.8%.
`C#CCC(Cc1cnc2nc(N)nc(N)c2n1)c1ccc(C(=O)N[C@@H](CCC(=O)O)C(=O)O)cc1` (some centres undefined) [Pralatrexate]: the AC50 cell viability with HCT116 [1] came to 0.00468 µM. In addition, the efficacy in the test with HCT116 [2] was -91.1%.
Taken in the same sequence, the figures for `COc1ccc(C(=O)c2c(C)n(CCN3CCOCC3)c3ccccc23)cc1` [Pravadoline] were 1.32 µM and -67.1%.
Compound `COc1cccc(OCCCN)c1-c1cc(Nc2cnc(C#N)cn2)n[nH]1` [Prexasertib] yielded an AC50 cell viability in the test with HCT116 [1] of 3.72 µM. The efficacy with HCT116 [2] is -111%.
In the case of `CC(=O)C1CCC2C3CC\C4=C\C(=O)CCC4(C)C3CCC12C` (centres undefined) [Progesterone], the AC50 cell viability in the test with HCT116 [1] came to 16.6 µM. Also, the efficacy with HCT116 [2] was -53.8%.
In the test on HCT116 [1], `C[C@@H]1O[C@@H](O[C@@H]2C=C3CC[C@@H]4[C@H](CC[C@]5(C)[C@@H](c6ccc(=O)oc6)CC[C@]45O)[C@@]3(C)CC2)[C@H](O)[C@H](O)[C@H]1O` [Proscillaridin] returned an AC50 cell viability of 0.00833 µM. In addition, in the test with HCT116 [2], the efficacy is -82.5%.
In the test on HCT116 [1], `c1ccc2c(Oc3nc(Nc4ccc(N5CCOCC5)cc4)c4ncn(C5CCCCC5)c4n3)cccc2c1` [Purmorphamine] returned an AC50 cell viability of 11.8 µM. The efficacy with HCT116 [2] is -34.8%.
With `CC(C)[C@H](CO)Nc1nc(Nc2cccc(Cl)c2)c2ncn(C(C)C)c2n1` [Purvalanol A], the AC50 cell viability in the test with HCT116 [1] amounted to 13.2 µM. Moreover, the efficacy in the test with HCT116 [2] is -110%.
`NCCOc1cc(C(=O)Nc2cc(OCCN)c3ccccc3n2)nc(C(=O)Nc2cc(OCCN)c3ccccc3n2)c1` [Pyridostatin] registered an AC50 cell viability in the test with HCT116 [1] of 18.6 µM. Besides, the efficacy in the test with HCT116 [2] is -78.9%.
Consider `CCc1nc(N)nc(N)c1-c1ccc(Cl)cc1` [Pyrimethamine], for which, in the test with HCT116 [1], the AC50 cell viability is 3.32 µM. Moreover, the efficacy in the test on HCT116 [2] was -88.5%.
The matching figures for `O=C(CCCCCCC(=O)Nc1cccnc1)NO` [Pyroxamide]: 2.95 µM and -87.9%.
`OC[C@H](Cc1ccccc1)Nc1nc(Oc2ccc3c(c2)CCC3)nc2c1ncn2Cc1ccc(-c2ccccc2)cc1` [QS11] had an AC50 cell viability with HCT116 [1] of 9.34 µM. For the same compound, the efficacy with HCT116 [2] is -49.7%.
In the case of `CCN(CC)CCCC(C)Nc1c2ccc(Cl)cc2nc2ccc(OC)cc12.Cl.Cl.O.O` (centres undefined) [Quinacrine], in the test with HCT116 [1], the AC50 cell viability was determined as 8.33 µM. In addition, in the test with HCT116 [2], the efficacy is -90.5%.
For the compound `Cn1cc(CNCC2CCN(c3ncc(C(=O)NO)cn3)CC2)c2ccccc21` [Quisinostat], the AC50 cell viability in the test with HCT116 [1] was 0.0742 µM. The efficacy in the test with HCT116 [2] is -81.9%.
For `CC(C)(C)c1cc(NC(=O)Nc2ccc(-c3cn4c(n3)sc3cc(OCCN5CCOCC5)ccc34)cc2)no1` [Quizartinib], the AC50 cell viability in the test with HCT116 [1] came out at 13.2 µM. Also, the efficacy in the test on HCT116 [2] is -74.1%.
The matching figures for `COc1cc(Nc2ncc(F)c(Nc3ccc4c(n3)NC(=O)C(C)(C)O4)n2)cc(OC)c1OC` [R-406]: 3.72 µM and -30.6%.
For the compound `COc1ccc(F)c(F)c1C(=O)c1cnc(NC2CCN([S+](C)(=O)[O-])CC2)nc1N` [R-547], the AC50 cell viability with HCT116 [1] stood at 0.417 µM. Besides, the efficacy in the test with HCT116 [2] was -67.8%.
In the test on HCT116 [1], `COC1=C(F)C=C\2C(=C1)\N=C/3NNC(=C3\N=C2C4=CC=CC=C4Cl)/C` [R-1530] yielded an AC50 cell viability of 14.8 µM. Moreover, in the test on HCT116 [2], the efficacy was -73.2%.
Consider `FC(F)(F)c1ccc(Nc2nc3cc(Oc4ccnc(-c5ncc(C(F)(F)F)[nH]5)c4)ccc3[nH]2)cc1` [RAF-265 derivative], for which, in the test with HCT116 [1], the AC50 cell viability amounted to 14.8 µM. The efficacy with HCT116 [2] was -84.8%.
In the test on HCT116 [1], `Cc1ncc(NC(=O)c2cccc(C(F)(F)F)c2)cc1-c1cnc(OC2CCOCC2)c(N2CCOCC2)c1` [RAF-709] came in with an AC50 cell viability of 0.525 µM. The efficacy in the test with HCT116 [2] was -84.5%.
Take `Cc1cc(Nc2cc(NC(=O)c3c(Cl)cccc3Cl)ccn2)nc(N)n1` [RO495]: the AC50 cell viability in the test on HCT116 [1] was determined as 1.18 µM. In addition, the efficacy in the test on HCT116 [2] is -74.4%.
`COc1cc(C(N)=O)ccc1NC(=O)[C@@H]1N[C@@H](CC(C)(C)C)[C@@]2(C(=O)Nc3cc(Cl)ccc32)[C@H]1c1cccc(Cl)c1F` [RO8994] had an AC50 cell viability in the test with HCT116 [1] of 0.934 µM. In addition, the efficacy with HCT116 [2] was -110%.
The matching figures for `COC(=O)c1ccc([C@H]2c3[nH]c4ccccc4c3C[C@H](C(=O)OC)N2C(=O)CCl)cc1` [RSL3]: 11.8 µM and -110%.
As to `COC1=CC(=C2C(=O)N\C(=N/C2=C1)C3=CC(=C(OCCO)C(=C3)C)C)OC` [RVX-208], in the test on HCT116 [1], the AC50 cell viability came out at 18.6 µM. The efficacy in the test with HCT116 [2] was -41.5%.
The compound `COc1cc(OC)cc(N2CCN(C(=O)Nc3nc4cc(F)ccc4nc3OC)CC2)c1` [RX-5902 (SUPINOXIN)] showed an AC50 cell viability in the test with HCT116 [1] of 2.63 µM. In addition, in the test on HCT116 [2], the efficacy was -60%.
In the test with HCT116 [1], `COCCCOc1ccnc(CS(=O)c2nc3ccccc3[n-]2)c1C.[Na+]` (centres undefined) [Rabeprazole] had an AC50 cell viability of 16.6 µM. The efficacy with HCT116 [2] was -43.4%.
In the case of `Cc1cnc(NC(=O)Nc2cc(Br)c(C)cc2OC[C@@H]2CNCCO2)cn1` [Rabusertib], the AC50 cell viability with HCT116 [1] came out at 16.6 µM. Moreover, in the test on HCT116 [2], the efficacy is -103%.
In the test on HCT116 [1], `CC(C)(c1ccc(OCC(O)CO)cc1)c1ccc(OCC(O)CCl)cc1` (stereo not drawn) [Ralaniten (EPI-001)] gave an AC50 cell viability of 18.6 µM. For the same compound, the efficacy in the test with HCT116 [2] was -37%.
The compound `O=C(c1ccc(OCCN2CCCCC2)cc1)c1c(-c2ccc(O)cc2)sc2cc(O)ccc12` [Raloxifene hydrochloride] had an AC50 cell viability with HCT116 [1] of 20.9 µM. In addition, the efficacy in the test on HCT116 [2] was -94.4%.
With `C[N]1N=CC=C1NC2=NC=CC(=N2)C\3=C\C(=O)N(\C=C3)[C@H](CO)C4=CC(=C(Cl)C=C4)F` [Ravoxertinib], in the test on HCT116 [1], the AC50 cell viability was found to be 14.8 µM. Moreover, the efficacy in the test on HCT116 [2] was -116%.
The matching figures for `CO[C@@H]1[C@@H](O)[C@H](O)[C@@H](n2c3c(Cl)cccc3c3c4c(c5c6cccc(Cl)c6[nH]c5c32)C(=O)NC4=O)O[C@H]1CO` [Rebeccamycin]: 0.934 µM and -88.9%.
As for `COc1cc(F)c(F)c(Nc2ccc(I)cc2F)c1N[S+](=O)([O-])C1(C[C@H](O)CO)CC1` [Refametinib], the AC50 cell viability with HCT116 [1] was 2.63 µM. Also, the efficacy with HCT116 [2] was -84.3%.
The matching figures for `CNC(=O)c1cc(Oc2ccc(NC(=O)Nc3ccc(Cl)c(C(F)(F)F)c3)c(F)c2)ccn1` [Regorafenib]: 5.25 µM and -85.3%.
`CONC(=O)Nc1ccc(-c2sc3c(c2CN(C)C)c(=O)n(-c2ccc(OC)nn2)c(=O)n3Cc2c(F)cccc2F)cc1` [Relugolix]: the AC50 cell viability in the test with HCT116 [1] came out at 23.5 µM. Also, the efficacy with HCT116 [2] is -67.3%.
As for `COC(=O)C1C2CC3c4[nH]c5cc(OC)ccc5c4CCN3CC2CC(OC(=O)c2cc(OC)c(OC)c(OC)c2)C1OC` (centres undefined) [Reserpine], the AC50 cell viability in the test with HCT116 [1] came to 20.9 µM. In the test with HCT116 [2], the efficacy is -68.3%.
As for `CN(C)Cc1ccc([S+](=O)([O-])n2ccc(/C=C/C(=O)NO)c2)cc1` [Resminostat], the AC50 cell viability in the test with HCT116 [1] was 2.35 µM. For the same compound, the efficacy in the test on HCT116 [2] was -103%.
The compound `Oc1ccc(/C=C/c2cc(O)cc(O)c2)cc1` [Resveratrol] came in with an AC50 cell viability in the test on HCT116 [1] of 20.9 µM. For the same compound, the efficacy in the test on HCT116 [2] is -49.1%.
In the case of `C=CCNc1c(O)cc2c(O)c1C[C@@H](C)C[C@H](OC)[C@H](O)[C@@H](C)/C=C(/C)[C@H](OC(N)=O)[C@@H](OC)/C=C\C=C(\C)C(=O)N2` [Retaspimycin Hydrochloride], the AC50 cell viability in the test on HCT116 [1] came out at 0.372 µM. Moreover, the efficacy in the test with HCT116 [2] was -66.4%.
Taken in the same sequence, the figures for `c1nc2c(NC3CCCCC3)nc(Nc3ccc(N4CCOCC4)cc3)nc2[nH]1` [Reversine] were 6.61 µM and -114%.
As to `CO[C@H]1C[C@@H]2CC[C@@H](C)[C@@](O)(O2)C(=O)C(=O)N2CCCC[C@H]2C(=O)O[C@H]([C@H](C)C[C@@H]2CC[C@@H](OP(C)(C)=O)[C@H](OC)C2)CC(=O)[C@H](C)/C=C(\C)[C@@H](O)[C@@H](OC)C(=O)[C@H](C)C[C@H](C)/C=C/C=C/C=C/1C` [Ridaforolimus], in the test with HCT116 [1], the AC50 cell viability is 20.9 µM. Besides, the efficacy with HCT116 [2] was -48.8%.
